The results in this text go back to patent US20250213478A1, “CATIONIC LIPID HAVING DISULFIDE BOND, LIPID MEMBRANE STRUCTURE INCLUDING SAME, NUCLEIC ACID INTRODUCTION AGENT AND PHARMACEUTICAL COMPOSITION CONTAINING ANY ONE OF SAME, METHOD FOR INTRODUCING NUCLEIC ACID INTO CELL OR TARGET CELL, AND METHOD FOR PRODUCING CELLULAR PHARMACEUTICAL” (NOF Corporation, priority 2022, published 2025).

Series [1] is described as follows: Particle size, PdI and zeta potential of mRNA-encapsulating LNPs (dynamic light scattering). To be noted: mRNA-encapsulating LNP, cationic lipid:DOPC:Chol=55:5:40 + about 1 mol DMG-PEG2k; for PdI / particle size: dynamic light scattering; for zeta potential: physiological pH. The format is physicochemical. As to the method: A 10 mM ethanol solution of cationic lipid, a 5 mM ethanol solution of DOPC, and a 10 mM ethanol solution of Chol were mixed at desired ratio (cationic lipid:DOPC:Chol=55:5:40 (molar ratio)) in an Eppendorf tube to achieve the total lipid amount of 720 nmol. To the obtained mixture was further added DMG-PEG2k (2 mM ethanol solution) in an amount of about 1 mol with respect to the total amount 100 mol of cationic lipid, DOPC, and Chol, and then ethanol was added to prepare an ethanol solution of the lipid (total amount: 360 μL).
An acidic buffer solution (total amount: 1080 μL) of nucleic acid was prepared by weighing 7.2 μg of mRNA solution (0.6 mg/mL) in a 5 mL tube and adding acidic malate buffer (20 mM, pH 3.0) containing NaCl at a final concentration of 30 mM.
An acidic buffer solution of nucleic acid and an ethanol solution of lipid were each weighed in a syringe. Using an ultra high-speed nanomedicament producing apparatus NanoAssmblr (manufactured by Precision NanoSystems), LNP was prepared under the conditions of addition rate of acidic buffer solution of nucleic acid: 3 mL/min, addition rate of ethanol solution of lipid: 1 mL/min, and syringe holder temperature: 25° C., and collected in a 15 mL tube. MES buffer (pH 6.5) (3000 μL) was added to the 15 mL tube, the obtained mixture was transferred to Amicon Ultra 4, and ultrafiltration was performed under centrifugation conditions (25° C., 1000 g, 6 min) to concentrate the mixture to about 100 μL. The obtained concentrate was diluted with PBS to 4 mL, and the mixture was concentrated again under centrifugation conditions (25° C., 1000 g, 6 min), and this operation was performed twice. The obtained concentrate was diluted with PBS to a lipid concentration of 2 mM to give a dispersion containing LNP.
The particle size, PdI (Polydispersity Index), and zeta potential of the mRNA-encapsulating LNP prepared by the method of the above-mentioned 1 were measured by a dynamic light scattering method. In Comparative Example, the cationic lipid described in the aforementioned Table 3 were used.

Another series has as its system HeLa cells. Put plainly: Evaluation of in vitro gene expression in HeLa cell (luciferase mRNA-encapsulating LNP). Type of series: cell-based, human. To be noted: luciferase mRNA 0.4 μg per dish, LNP cationic lipid:DOPC:Chol:DMG-PEG2k=55:5:40:1. The method, then: LNP encapsulating mRNA that expresses luciferase (cationic lipid:DOPC:Chol:DMG-PEG2k=55:5:40:1 (molar ratio)) was prepared by the method described in [Experimental Example 2], 1.
HeLa cells, which are human cervical cancer cells, were seeded in a 3.5 cm dish at 5.0×10^4 cells/2 mL/Dish 24 hours before transfection. After 24 hours, the medium was exchanged with a culture medium (D-MEM) containing 0.1 mM D-luciferin. Prepared mRNA-encapsulating LNP was diluted with PBS such that the concentration of mRNA was about 8 μg/mL. The diluted mRNA-encapsulating LNP solution (about 50 μL, mRNA: 0.4 μg) was added to the 3.5 cm dish and set in an incubator luminometer KronosDio. The luminescence intensity of luciferase was measured for 2 min every one hour. The cumulative luciferase luminescence intensity for 24 hr was calculated from the obtained time change of expression. For example, “1.0E+06” means “1.0×10^6”. In Comparative Example, the cationic lipid described in the aforementioned Table 3 were used.

As for `CCCCCCCCCCCCCCC(CCCCCCCCCCCCCC)C(=O)Oc1ccc(CC(=O)OCCSSCCOC(=O)CN(C)C)cc1` [Example 3], in series [1], the PdI was determined as 0.078, the particle size turned out to be 90 nm and the zeta potential is listed as −3.0 mV.

For the compound `CCCCCCCC/C=C\CCCCCCCC(=O)Oc1ccc(CC(=O)OCCSSCCOC(=O)CN(C)C)cc1OC(=O)CCCCCCC/C=C\CCCCCCCC` [Example 14], in series [1], the PdI was 0.071, the particle size came to 67 nm and the zeta potential is recorded as −4.1 mV.

With `CCCCCCCCCCCCCCCCC(CCCCCCCCCCCCCCCC)C(=O)Oc1ccc(CC(=O)OCCSSCCOC(=O)/C=C/CN(C)C)cc1` [Example 38], in series [1], the PdI is listed as 0.106, the particle size stood at 106 nm and the zeta potential is given as −3.8 mV. The “cumulative luciferase luminescence intensity over 24 hr” value with HeLa cells is reported as 1.31E+05 RLU.

On to `CCCCCCCCCCCCCCCCC(CCCCCCCCCCCCCCCC)C(=O)Oc1ccc(CC(=O)OCCSSCCOC(=O)/C=C/CN(CC)CC)cc1` [Example 39], for which, in series [1], the PdI worked out at 0.128, the particle size is 107 nm and the zeta potential was −5.3 mV. In addition, the “cumulative luciferase luminescence intensity over 24 hr” value with HeLa cells is reported as 3.95E+04 RLU.

`CCCCCCCCCCCCCCCCC(CCCCCCCCCCCCCCCC)C(=O)Oc1ccc(CC(=O)OCCSSCCOC(=O)/C=C/CN(CC)CCO)cc1` [Example 40]: in series [1], the PdI is on record as 0.104, the particle size came to 89 nm and the zeta potential was determined as 0.1 mV. In addition, the “cumulative luciferase luminescence intensity over 24 hr” value in the series with HeLa cells amounted to 2.33E+05 RLU.

Consider `CCCCCCCCCCCCCCCCC(CCCCCCCCCCCCCCCC)C(=O)Oc1ccc(CC(=O)OCCCCSSCCCCOC(=O)CCCN(C)C)cc1` [Example 41], for which, in series [1], the PdI was 0.091, the particle size was determined as 80 nm and the zeta potential is listed as 4.0 mV.
